# Reference: paper PMC3083694, “Effects of Intermediates between Vitamins K2 and K3 on Mammalian DNA Polymerase Inhibition and Anti-Inflammatory Activity” (International Journal of Molecular Sciences, 2011)
# Columns and labels:
# [1] = target: T1, Fruit fly DNA polymerase δ (Drosophila melanogaster, UniProt P54358); test: DNA polymerase activity assay, fruit fly pol δ; format: biochemical; details: insect pol; read-out: IC50 Value of MK-2, Fruit fly DNA polymerase δ
# T1 construct: made in house
# Description: (§1) Pols from mammals, a fish (cherry salmon), an insect (fruit fly) and a plant (cauliflower) were purified, and prokaryotic pols and other DNA metabolic enzymes, such as T7 RNA polymerase, T4 polynucleotide kinase and bovine deoxyribonuclease I, were purchased as described in our previous report. The activities of all pols and other DNA metabolic enzymes were measured as described in previous reports.
# (§2) The components of the pol assay were poly(dA)/oligo(dT)18 and dTTP as the DNA template-primer and 2′-deoxyribonucleoside 5′-triphosphate (dNTP) substrate, respectively. VK2, VK3, and their synthesized derivatives (i.e., MK-3, MK-2 and MK-1) were dissolved in dimethyl sulfoxide (DMSO) at various concentrations and sonicated for 30 s. The sonicated samples (4 μL) were mixed with 16 μL of each pol enzyme (final amount, 0.05 units) in 50 mM Tris-HCl (pH 7.5) containing 1 mM dithiothreitol, 50% glycerol and 0.1 mM EDTA, and kept at 0 °C for 10 min. […] Activity without the inhibitor was considered to be 100%, and the activity remaining at each concentration of inhibitor was determined relative to this value. […]
# [2] = target: T2, Fruit fly DNA polymerase α (Drosophila melanogaster, UniProt P26019); test: DNA polymerase activity assay, fruit fly pol α; format: biochemical; details: insect pol; read-out: IC50 Value of MK-2, Fruit fly DNA polymerase α
# T2 construct: made in house
# Description: as §1, §2
# Mouse DNA polymerase ι = target: T3, Mouse DNA polymerase ι (Mus musculus, UniProt Q6R3M4); test: DNA polymerase activity assay, mouse pol ι; format: biochemical; details: Y-family pol; read-out: IC50 Value of MK-2, Mouse DNA polymerase ι
# T3 construct: made in house
# Description: as §1, §2
# [3] = tested on: nuclear translocation of NF-κB p65 in RAW264.7 cells; test: LPS-induced nuclear translocation of NF-κB p65 (Western blot); format: cell-based, mouse; details: 10 μM MK-2 30 min, then 100 ng/mL LPS 30 min, LPS alone 4.47-fold
# Description: RAW264.7 cells on a 6-well plate at 5 × 10^5 cells/well were incubated with 10 μM of MK-2 or DMSO (1 μL/mL) as a vehicle control for 30 min, followed by treatment with 100 ng/mL of LPS for 30 min. After treatment, cells were harvested with lysis buffer consisting of 10 mM Hepes (pH 7.9), 10 mM KCl, 1.5 mM MgCl2 and 0.5 mM DTT containing protease inhibitors (1 mM phenylmethylsulfonyl fluoride [PMSF], 5 μg/mL of leupeptin and 5 μg/mL of aprotinin) and phosphatase inhibitors (10 mM NaF and 1 mM Na3VO4) and stood on ice for 15 min with occasional mixing. The mixture was centrifuged at 1000 × g for 10 min at 4 °C. […] The protein concentration was measured by using a bicinchoninic acid (BCA) assay kit in accordance with the manufacturer’s protocol. […]
# The nuclear proteins (30–50 μg of protein) were boiled in a quarter-volume of sample buffer (1 M Tris-HCl [pH 7.5], 640 mM 2-mercaptoethanol, 0.2% bromphenol blue, 4% SDS and 20% glycerol) and then separated on 10% SDS polyacrylamide gels. […] The protein-antibody complex was visualized with ChemiLumiONE (Nacalai Tesque, Kyoto, Japan) and detected using an Image Reader (LAS-3000 Imaging System, Fuji Photo Film, Tokyo, Japan). The intensity of each band was analyzed using ImageJ, which was developed at the National Institute of Health.
# Taq DNA polymerase = target: T4, Taq DNA polymerase (Thermus aquaticus, UniProt P19821); test: DNA polymerase activity assay, Taq pol; format: biochemical; details: prokaryotic pol; incubated at 74 °C; read-out: IC50 Value of MK-2, Taq DNA polymerase
# T4 construct: purchased
# Description: as §1, §2
# Human DNA polymerase δ = target: T5, Human DNA polymerase δ (Homo sapiens, UniProt P28340); test: DNA polymerase activity assay, human pol δ; format: biochemical; details: B-family pol; read-out: IC50 Value of MK-2, Human DNA polymerase δ
# T5 construct: made in house
# Description: as §1, §2
# E. coli DNA polymerase I = target: T6, E. coli DNA polymerase I (Escherichia coli, UniProt P00582); test: DNA polymerase activity assay, E. coli pol I; format: biochemical; details: prokaryotic pol; read-out: IC50 Value of MK-2, E. coli DNA polymerase I
# T6 construct: purchased
# Description: as §1, §2
# [4] = target: X-family pols (mammalian); test: DNA polymerase activity assay, mammalian X-family pols; format: biochemical, mammals; details: range over mammalian X-family pols β, λ, TdT; read-out: 50% inhibition of the X family of pols
# Description: as §1, §2
# [5] = target: Y-family pols (mammalian); test: DNA polymerase activity assay, mammalian Y-family pols; format: biochemical, mammals; details: range over mammalian Y-family pols η, ι, κ; read-out: 50% inhibition of the Y family of pols
# Description: as §1, §2
# [6] = target: B-family pols (mammalian); test: DNA polymerase activity assay, mammalian B-family pols; format: biochemical, mammals; details: range over mammalian B-family pols α, δ, ɛ; read-out: 50% inhibition of the B family of pols
# Description: as §1, §2
# T4 polynucleotide kinase = target: T7, T4 polynucleotide kinase (Enterobacteria phage T4, UniProt P06855); test: DNA metabolic enzyme assay, T4 polynucleotide kinase; format: biochemical; details: other DNA metabolic enzyme; read-out: IC50 Value of MK-2, T4 polynucleotide kinase
# T7 construct: purchased
# Description: as §1
# Human DNA polymerase ɛ = target: T8, Human DNA polymerase ɛ (Homo sapiens, UniProt Q07864); test: DNA polymerase activity assay, human pol ɛ; format: biochemical; details: B-family pol; read-out: IC50 Value of MK-2, Human DNA polymerase ɛ
# T8 construct: made in house
# Description: as §1, §2
# T1 sequence (P54358 whole entry): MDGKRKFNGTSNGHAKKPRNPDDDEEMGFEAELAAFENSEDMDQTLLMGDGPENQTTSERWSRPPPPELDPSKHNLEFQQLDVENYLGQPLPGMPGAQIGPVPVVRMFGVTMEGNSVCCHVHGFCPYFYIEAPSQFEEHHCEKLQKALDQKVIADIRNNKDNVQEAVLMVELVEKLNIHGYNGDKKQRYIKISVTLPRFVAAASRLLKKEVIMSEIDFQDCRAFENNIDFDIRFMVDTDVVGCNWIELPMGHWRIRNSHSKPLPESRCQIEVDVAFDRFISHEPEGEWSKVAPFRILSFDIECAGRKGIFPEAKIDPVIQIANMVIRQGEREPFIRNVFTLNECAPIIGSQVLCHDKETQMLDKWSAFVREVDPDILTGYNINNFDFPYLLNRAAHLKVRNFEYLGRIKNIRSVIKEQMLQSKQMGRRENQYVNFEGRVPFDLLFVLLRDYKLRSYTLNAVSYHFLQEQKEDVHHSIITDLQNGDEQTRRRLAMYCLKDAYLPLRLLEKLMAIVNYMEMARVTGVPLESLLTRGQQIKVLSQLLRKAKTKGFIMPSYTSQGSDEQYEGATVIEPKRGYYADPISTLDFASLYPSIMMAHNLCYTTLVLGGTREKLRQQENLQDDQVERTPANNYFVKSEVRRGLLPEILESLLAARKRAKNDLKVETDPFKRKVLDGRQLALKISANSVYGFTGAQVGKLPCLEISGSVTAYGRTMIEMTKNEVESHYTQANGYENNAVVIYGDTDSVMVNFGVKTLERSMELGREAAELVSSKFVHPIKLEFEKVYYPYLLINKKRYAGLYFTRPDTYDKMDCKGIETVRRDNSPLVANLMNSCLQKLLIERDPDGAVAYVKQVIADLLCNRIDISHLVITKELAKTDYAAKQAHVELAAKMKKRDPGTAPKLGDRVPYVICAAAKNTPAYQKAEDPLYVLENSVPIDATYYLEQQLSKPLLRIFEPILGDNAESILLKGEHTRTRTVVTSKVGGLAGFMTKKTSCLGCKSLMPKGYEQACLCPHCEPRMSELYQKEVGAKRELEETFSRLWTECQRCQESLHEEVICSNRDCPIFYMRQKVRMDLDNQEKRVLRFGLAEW
# T6 sequence (P00582 324-928): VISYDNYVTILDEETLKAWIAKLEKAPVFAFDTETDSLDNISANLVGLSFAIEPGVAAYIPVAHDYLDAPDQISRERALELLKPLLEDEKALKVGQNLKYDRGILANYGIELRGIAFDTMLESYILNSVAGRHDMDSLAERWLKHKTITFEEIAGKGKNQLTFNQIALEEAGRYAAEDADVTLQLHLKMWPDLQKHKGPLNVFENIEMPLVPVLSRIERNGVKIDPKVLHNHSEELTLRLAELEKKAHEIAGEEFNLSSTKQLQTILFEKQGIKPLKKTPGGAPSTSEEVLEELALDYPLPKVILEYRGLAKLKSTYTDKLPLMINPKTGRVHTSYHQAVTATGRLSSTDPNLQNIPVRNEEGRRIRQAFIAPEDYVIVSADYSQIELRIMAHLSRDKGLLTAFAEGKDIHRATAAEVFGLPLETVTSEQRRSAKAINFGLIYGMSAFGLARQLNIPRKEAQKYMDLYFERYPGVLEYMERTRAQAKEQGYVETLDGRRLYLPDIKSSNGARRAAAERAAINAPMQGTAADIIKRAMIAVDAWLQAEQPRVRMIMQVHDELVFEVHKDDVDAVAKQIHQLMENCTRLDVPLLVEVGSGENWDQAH
# T8 sequence (Q07864 whole entry): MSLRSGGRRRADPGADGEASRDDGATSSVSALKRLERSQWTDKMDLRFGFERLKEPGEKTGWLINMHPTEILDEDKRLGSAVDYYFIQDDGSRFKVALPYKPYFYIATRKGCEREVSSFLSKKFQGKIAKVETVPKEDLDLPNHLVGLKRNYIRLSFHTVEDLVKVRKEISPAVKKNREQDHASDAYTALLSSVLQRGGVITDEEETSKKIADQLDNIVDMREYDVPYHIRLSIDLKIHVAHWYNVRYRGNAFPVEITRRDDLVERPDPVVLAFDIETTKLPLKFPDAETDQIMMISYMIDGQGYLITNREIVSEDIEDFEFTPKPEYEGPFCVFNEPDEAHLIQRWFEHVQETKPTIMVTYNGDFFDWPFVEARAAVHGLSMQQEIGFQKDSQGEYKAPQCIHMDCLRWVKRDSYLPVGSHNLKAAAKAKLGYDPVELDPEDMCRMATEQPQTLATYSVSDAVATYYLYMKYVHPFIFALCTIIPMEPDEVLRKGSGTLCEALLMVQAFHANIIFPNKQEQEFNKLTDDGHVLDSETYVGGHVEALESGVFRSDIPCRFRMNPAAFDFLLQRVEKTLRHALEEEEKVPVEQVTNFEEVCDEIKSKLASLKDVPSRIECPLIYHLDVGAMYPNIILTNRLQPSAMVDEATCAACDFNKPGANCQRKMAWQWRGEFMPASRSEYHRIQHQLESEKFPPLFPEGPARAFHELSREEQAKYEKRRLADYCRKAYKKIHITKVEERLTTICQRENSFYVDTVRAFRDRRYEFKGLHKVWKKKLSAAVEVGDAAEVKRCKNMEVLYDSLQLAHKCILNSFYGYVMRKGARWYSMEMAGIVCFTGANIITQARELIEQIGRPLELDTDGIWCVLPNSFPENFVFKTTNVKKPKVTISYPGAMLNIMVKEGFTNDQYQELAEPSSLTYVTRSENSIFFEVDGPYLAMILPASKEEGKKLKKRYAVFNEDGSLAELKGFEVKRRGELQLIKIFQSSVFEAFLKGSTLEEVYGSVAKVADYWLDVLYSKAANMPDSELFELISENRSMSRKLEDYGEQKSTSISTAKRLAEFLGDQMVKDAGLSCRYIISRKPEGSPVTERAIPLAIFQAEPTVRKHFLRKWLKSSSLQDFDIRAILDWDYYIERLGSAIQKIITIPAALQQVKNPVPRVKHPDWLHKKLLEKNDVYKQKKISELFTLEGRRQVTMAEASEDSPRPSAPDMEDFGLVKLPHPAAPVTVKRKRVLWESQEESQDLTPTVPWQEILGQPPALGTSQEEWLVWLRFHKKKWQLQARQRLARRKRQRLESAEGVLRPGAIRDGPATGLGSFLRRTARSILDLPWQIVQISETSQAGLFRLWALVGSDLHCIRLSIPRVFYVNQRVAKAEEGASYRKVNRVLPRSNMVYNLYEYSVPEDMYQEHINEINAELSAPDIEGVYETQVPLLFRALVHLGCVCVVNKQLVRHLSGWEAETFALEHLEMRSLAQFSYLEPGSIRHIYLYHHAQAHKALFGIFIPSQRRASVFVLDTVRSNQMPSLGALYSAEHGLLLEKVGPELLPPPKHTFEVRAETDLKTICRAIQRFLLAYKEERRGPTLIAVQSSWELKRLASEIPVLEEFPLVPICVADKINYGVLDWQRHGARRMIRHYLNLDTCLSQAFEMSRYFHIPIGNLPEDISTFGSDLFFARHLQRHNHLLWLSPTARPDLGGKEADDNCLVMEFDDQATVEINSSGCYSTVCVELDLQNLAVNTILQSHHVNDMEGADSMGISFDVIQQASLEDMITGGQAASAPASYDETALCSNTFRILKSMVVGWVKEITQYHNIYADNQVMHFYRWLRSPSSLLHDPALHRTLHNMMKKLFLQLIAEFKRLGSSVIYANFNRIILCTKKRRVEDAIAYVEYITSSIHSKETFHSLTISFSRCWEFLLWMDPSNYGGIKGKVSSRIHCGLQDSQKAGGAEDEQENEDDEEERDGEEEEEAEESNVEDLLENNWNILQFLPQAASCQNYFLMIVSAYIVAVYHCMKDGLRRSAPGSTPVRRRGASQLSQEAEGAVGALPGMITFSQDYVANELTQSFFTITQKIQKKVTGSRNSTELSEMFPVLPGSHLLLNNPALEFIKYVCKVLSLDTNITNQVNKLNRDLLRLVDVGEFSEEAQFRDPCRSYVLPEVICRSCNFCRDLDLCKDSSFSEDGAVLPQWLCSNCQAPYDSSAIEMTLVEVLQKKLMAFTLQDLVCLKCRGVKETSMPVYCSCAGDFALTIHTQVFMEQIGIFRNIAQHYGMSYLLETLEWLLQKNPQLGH
# T3 sequence (Q6R3M4 whole entry): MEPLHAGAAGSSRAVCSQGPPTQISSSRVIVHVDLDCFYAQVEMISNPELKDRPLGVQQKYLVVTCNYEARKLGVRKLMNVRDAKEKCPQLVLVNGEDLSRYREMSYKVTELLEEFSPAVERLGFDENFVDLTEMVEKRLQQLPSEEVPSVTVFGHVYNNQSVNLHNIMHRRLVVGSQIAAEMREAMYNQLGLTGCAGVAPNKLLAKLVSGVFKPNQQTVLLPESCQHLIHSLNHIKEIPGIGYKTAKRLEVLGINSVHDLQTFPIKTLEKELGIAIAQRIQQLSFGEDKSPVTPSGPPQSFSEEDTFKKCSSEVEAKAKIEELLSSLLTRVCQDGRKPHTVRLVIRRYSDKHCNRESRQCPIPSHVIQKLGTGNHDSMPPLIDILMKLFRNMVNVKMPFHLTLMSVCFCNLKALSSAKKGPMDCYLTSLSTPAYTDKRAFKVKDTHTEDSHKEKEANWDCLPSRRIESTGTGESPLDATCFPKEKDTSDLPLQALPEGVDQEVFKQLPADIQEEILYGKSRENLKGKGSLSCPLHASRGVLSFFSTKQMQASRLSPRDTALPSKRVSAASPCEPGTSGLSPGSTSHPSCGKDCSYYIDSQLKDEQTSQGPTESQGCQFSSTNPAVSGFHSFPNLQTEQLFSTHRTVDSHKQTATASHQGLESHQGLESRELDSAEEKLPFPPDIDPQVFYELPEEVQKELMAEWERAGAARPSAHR
# T7 sequence (P06855 whole entry): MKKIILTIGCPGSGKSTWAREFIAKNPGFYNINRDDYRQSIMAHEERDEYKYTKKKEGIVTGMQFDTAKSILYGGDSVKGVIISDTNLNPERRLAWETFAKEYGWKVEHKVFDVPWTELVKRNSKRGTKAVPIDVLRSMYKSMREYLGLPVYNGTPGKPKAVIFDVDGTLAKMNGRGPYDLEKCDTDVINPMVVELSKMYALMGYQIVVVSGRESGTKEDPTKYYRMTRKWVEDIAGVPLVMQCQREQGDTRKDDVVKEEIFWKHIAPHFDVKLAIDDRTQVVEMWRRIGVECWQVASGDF
smiles,measurement,setting,value
CC(C)=CCC/C(C)=C/CC1=C(C)C(=O)c2ccccc2C1=O [MK-2],IC50,[1],36.9 ± 2.2 µM
same,IC50,[2],34 ± 2 µM
same,IC50,Mouse DNA polymerase ι,39 ± 2.3 µM
same,LPS-stimulated nuclear translocation of NF-κB p65 relative to treatment without LPS,[3],2.04 fold
same,IC50,Taq DNA polymerase,> 200 µM
same,IC50,Human DNA polymerase δ,29.1 ± 1.8 µM
same,IC50,E. coli DNA polymerase I,> 200 µM
same,IC50,[4],24.6 to 31 µM
same,IC50,[5],35.3 to 39 µM
same,IC50,[6],27.6 to 29.1 µM
same,IC50,T4 polynucleotide kinase,> 200 µM
same,IC50,Human DNA polymerase ɛ,28.2 ± 1.6 µM
